From patent US10231954B2, “Neurodegenerative therapies” (LYTIX BIOPHARMA AS, priority 2014, dated 2019)

Tests used:
Format in all cases: biochemical
Details in all cases: 100 micromolar inhibitor concentration, 100 is no change
CSK = CSK (Homo sapiens, UniProt P41240); assay: Kinase profiling CSK
From the text: (§1) Any value less that 25 is considered to be highly significant inhibition.

TGFBR1 = target: T1, TGFBR1 (Homo sapiens, UniProt P36897); assay: Kinase profiling TGFBR1
T1 sequence (P36897 34-503): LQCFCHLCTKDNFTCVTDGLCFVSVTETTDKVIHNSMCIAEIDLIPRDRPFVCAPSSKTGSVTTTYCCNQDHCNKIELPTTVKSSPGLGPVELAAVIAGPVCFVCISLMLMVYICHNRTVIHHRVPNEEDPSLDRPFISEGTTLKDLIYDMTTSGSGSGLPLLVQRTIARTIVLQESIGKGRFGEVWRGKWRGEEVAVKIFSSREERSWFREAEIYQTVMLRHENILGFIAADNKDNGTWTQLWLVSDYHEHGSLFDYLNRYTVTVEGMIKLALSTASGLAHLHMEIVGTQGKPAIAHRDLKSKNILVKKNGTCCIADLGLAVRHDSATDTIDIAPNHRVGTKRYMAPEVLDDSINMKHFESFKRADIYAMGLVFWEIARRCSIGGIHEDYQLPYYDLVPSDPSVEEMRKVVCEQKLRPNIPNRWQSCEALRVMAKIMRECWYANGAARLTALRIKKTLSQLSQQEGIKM
From the text: as §1

ABL = ABL (Homo sapiens, UniProt P00519); assay: Kinase profiling ABL
From the text: as §1

TAO1 = target: T2, TAO1 (Homo sapiens, UniProt Q7L7X3); assay: Kinase profiling TAO1
T2 sequence (Q7L7X3 1-1001): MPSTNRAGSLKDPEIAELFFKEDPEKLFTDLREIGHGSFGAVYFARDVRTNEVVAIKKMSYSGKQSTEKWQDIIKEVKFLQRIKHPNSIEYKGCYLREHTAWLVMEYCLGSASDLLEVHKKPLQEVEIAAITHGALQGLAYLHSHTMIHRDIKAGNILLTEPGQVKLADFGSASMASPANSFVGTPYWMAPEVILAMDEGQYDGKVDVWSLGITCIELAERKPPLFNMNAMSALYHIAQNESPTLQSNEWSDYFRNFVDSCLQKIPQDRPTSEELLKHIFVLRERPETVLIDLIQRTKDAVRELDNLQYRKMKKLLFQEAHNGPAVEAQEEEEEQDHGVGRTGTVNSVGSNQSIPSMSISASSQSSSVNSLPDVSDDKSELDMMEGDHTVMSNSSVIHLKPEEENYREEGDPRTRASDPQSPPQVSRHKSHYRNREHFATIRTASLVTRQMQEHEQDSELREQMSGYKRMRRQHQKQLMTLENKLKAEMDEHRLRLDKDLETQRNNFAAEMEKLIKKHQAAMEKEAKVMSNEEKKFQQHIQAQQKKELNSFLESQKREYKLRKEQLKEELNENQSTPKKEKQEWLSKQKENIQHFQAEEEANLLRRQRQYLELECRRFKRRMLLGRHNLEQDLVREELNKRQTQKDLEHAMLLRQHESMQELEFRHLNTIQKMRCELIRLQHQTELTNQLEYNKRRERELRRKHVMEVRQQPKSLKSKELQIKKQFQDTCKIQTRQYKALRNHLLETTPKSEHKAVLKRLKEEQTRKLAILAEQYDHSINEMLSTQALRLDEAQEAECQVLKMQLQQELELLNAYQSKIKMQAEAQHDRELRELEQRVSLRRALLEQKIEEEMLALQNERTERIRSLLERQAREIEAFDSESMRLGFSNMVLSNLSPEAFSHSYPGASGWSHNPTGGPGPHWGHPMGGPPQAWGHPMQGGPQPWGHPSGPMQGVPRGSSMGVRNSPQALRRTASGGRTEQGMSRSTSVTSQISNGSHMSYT
From the text: as §1

PAK5 = PAK5 (Homo sapiens, UniProt Q9P286); assay: Kinase profiling PAK5
From the text: as §1

BRSK2 = target: T3, BRSK2 (Homo sapiens, UniProt Q8IWQ3); assay: Kinase profiling BRSK2
T3 sequence (Q8IWQ3 1-736): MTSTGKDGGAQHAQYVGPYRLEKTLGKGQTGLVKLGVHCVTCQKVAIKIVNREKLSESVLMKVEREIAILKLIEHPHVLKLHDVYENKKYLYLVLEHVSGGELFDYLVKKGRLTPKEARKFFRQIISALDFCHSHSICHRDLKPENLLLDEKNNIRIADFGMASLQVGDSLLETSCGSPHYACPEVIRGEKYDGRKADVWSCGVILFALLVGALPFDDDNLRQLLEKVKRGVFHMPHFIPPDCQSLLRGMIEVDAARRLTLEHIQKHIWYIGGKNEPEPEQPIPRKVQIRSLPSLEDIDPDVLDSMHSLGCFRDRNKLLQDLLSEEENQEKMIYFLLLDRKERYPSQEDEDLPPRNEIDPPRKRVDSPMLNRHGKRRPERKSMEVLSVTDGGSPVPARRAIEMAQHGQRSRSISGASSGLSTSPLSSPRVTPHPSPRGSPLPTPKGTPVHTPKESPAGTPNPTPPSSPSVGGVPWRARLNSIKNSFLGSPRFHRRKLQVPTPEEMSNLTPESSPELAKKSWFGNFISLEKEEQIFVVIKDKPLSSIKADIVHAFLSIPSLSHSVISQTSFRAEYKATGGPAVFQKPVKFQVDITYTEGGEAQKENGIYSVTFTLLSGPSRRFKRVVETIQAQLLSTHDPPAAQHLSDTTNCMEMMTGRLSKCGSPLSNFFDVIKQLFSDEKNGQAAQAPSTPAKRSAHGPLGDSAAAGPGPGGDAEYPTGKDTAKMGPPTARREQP
From the text: as §1

MEKK1 = MEKK1 (Homo sapiens, UniProt Q13233); assay: Kinase profiling MEKK1
From the text: as §1

CK1γ2 = CK1γ2 (Homo sapiens, UniProt P78368); assay: Kinase profiling CK1γ2
From the text: as §1

Sequence of PAK5 (Q9P286 whole entry): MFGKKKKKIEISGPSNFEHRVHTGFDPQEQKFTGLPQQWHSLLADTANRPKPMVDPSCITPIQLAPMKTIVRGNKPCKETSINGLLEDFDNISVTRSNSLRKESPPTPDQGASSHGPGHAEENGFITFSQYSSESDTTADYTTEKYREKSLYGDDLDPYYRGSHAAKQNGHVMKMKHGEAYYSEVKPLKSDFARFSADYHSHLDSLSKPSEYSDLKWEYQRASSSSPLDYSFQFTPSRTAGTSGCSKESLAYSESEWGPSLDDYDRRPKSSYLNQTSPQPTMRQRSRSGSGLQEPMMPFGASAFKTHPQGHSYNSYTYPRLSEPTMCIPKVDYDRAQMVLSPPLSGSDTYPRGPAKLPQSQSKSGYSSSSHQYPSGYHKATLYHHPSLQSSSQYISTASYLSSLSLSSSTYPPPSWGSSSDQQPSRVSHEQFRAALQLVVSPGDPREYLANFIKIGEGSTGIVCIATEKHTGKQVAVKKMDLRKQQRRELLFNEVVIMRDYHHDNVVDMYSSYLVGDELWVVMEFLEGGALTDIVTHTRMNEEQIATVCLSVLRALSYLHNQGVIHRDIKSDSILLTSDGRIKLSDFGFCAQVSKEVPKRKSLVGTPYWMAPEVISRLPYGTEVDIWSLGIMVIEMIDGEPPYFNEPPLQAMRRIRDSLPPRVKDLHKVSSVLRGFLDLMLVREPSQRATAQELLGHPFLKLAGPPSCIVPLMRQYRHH
Sequence of ABL (P00519 whole entry, species assumed): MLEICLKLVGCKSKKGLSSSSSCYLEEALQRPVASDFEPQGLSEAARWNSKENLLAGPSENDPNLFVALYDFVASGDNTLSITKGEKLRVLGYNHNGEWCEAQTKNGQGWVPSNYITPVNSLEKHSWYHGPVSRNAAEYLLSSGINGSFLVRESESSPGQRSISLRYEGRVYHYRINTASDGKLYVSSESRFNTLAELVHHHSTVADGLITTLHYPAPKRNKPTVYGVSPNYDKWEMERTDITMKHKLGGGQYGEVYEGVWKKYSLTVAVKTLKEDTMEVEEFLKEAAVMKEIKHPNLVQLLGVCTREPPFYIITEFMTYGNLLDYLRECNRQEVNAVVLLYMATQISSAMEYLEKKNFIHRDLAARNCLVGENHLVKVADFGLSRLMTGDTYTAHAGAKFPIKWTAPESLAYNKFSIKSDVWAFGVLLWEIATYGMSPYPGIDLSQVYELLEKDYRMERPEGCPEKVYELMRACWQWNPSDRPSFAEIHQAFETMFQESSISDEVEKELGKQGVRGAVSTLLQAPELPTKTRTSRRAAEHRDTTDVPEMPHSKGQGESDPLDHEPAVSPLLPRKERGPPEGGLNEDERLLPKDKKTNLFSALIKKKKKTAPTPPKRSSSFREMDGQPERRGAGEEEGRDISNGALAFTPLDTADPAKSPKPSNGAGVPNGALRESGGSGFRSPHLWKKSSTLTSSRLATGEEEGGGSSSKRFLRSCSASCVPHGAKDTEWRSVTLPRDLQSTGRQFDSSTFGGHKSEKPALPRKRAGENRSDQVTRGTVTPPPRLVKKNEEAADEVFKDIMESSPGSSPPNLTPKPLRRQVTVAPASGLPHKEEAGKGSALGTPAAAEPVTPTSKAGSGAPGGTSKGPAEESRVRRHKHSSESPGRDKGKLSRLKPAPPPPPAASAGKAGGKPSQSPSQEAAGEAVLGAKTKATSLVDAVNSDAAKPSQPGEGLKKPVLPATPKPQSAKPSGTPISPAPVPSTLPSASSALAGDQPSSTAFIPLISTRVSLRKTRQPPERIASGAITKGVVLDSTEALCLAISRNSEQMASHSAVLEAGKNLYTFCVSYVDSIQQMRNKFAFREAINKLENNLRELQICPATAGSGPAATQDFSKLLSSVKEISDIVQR
Sequence of CK1γ2 (P78368 whole entry): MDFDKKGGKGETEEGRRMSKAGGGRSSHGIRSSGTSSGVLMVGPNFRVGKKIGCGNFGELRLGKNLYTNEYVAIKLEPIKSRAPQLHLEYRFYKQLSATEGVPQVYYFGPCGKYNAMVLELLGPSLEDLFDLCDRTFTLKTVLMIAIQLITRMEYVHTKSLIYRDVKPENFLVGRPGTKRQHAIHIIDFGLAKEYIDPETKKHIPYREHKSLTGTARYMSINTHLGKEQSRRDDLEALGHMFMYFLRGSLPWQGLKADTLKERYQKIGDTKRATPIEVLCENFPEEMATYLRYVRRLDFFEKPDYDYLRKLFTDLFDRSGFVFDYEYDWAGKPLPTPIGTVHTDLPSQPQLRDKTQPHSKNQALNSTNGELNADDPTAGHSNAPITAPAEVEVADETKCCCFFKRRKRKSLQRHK
Sequence of CSK (P41240 whole entry, species assumed): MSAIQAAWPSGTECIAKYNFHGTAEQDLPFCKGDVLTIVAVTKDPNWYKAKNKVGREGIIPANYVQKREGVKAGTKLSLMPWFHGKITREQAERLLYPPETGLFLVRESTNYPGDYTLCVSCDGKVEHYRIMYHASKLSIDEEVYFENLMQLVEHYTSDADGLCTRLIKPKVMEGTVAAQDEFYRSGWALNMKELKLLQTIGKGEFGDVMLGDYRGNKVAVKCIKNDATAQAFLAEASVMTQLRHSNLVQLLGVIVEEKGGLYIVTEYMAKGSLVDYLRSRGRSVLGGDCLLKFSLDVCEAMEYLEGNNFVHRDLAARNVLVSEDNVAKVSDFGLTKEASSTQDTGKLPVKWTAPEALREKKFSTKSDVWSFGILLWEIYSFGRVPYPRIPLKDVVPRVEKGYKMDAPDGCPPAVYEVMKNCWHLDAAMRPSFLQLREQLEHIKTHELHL
Sequence of MEKK1 (Q13233 whole entry, species assumed): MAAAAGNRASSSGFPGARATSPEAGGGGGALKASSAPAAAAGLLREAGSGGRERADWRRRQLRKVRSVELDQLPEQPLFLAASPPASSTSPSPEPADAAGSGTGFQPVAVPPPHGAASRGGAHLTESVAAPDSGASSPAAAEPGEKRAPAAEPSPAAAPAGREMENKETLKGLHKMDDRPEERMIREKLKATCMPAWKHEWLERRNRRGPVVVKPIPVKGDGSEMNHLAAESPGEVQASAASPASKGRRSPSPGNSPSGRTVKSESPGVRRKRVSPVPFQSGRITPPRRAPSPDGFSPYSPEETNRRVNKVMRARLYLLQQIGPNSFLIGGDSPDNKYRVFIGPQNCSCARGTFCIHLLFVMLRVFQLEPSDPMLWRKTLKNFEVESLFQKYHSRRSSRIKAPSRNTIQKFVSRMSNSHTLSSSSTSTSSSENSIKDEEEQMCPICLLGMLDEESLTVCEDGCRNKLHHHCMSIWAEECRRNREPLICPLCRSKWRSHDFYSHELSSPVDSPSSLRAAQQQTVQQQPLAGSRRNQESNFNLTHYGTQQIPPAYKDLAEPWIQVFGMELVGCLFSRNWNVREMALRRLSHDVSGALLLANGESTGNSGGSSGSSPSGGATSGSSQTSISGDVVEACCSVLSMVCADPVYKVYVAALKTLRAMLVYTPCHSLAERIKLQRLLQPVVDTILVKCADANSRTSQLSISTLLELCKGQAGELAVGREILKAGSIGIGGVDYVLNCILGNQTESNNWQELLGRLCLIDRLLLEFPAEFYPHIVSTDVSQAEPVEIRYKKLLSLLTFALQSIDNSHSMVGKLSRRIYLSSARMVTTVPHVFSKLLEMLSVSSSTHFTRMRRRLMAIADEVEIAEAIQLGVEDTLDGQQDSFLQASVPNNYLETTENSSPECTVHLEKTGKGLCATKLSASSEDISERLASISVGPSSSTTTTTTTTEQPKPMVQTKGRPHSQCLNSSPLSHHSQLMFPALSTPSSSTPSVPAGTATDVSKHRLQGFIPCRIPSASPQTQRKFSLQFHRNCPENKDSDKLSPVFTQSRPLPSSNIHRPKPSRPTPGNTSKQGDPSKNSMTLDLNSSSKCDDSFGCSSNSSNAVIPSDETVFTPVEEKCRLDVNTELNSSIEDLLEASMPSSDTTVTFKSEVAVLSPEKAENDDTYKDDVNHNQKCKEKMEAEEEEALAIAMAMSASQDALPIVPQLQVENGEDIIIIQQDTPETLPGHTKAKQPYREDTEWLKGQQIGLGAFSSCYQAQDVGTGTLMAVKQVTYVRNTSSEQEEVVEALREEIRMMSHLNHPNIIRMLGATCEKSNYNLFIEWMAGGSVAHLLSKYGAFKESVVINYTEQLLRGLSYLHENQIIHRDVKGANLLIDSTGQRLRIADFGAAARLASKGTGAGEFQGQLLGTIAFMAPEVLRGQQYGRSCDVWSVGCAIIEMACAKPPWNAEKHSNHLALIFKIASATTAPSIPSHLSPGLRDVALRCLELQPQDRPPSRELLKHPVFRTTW

Row | SMILES | remaining activity at 100 µM (CSK; read-out: residual kinase activity, CSK) | remaining activity at 100 µM (TGFBR1; read-out: residual kinase activity, TGFBR1) | remaining activity at 100 µM (ABL; read-out: residual kinase activity, ABL) | remaining activity at 100 µM (TAO1; read-out: residual kinase activity, TAO1) | remaining activity at 100 µM (PAK5; read-out: residual kinase activity, PAK5) | remaining activity at 100 µM (BRSK2; read-out: residual kinase activity, BRSK2) | remaining activity at 100 µM (MEKK1; read-out: residual kinase activity, MEKK1) | remaining activity at 100 µM (CK1γ2; read-out: residual kinase activity, CK1γ2) | residual kinase activity, CSK (CSK) | residual kinase activity, TGFBR1 (TGFBR1) | residual kinase activity, ABL (ABL) | residual kinase activity, TAO1 (TAO1) | residual kinase activity, PAK5 (PAK5) | residual kinase activity, BRSK2 (BRSK2) | residual kinase activity, MEKK1 (MEKK1) | residual kinase activity, CK1γ2 (CK1γ2)
1 | CC(=O)Nc1nc2cc(F)ccc2s1 [Compound 03-77] | 98% | 96% | 86% | 69% | 111% | 77% | 102% | 22% | – | – | – | – | – | – | – | –
2 | O=C(Nc1nc2ccc(O)cc2s1)c1ccncc1 [Compound 08-42] | – | – | – | – | – | – | – | – | 89 | 106 | 76 | 81 | 79 | 74 | 76 | 62
3 | O=C(Nc1nc2ccc(O)cc2s1)c1cccnc1 [Compound 08-44] | – | – | – | – | – | – | – | – | 83 | 103 | 58 | 68 | 88 | 52 | 107 | 20
